{"source": "patent US9045461B2", "about": "“Phenyl-heteroaryl derivatives and methods of use thereof” (TransTech Pharma, LLC, priority 2010, dated 2015)", "key": {"sRAGE binding to S100b": {"target": "T1, sRAGE binding to S100b (Homo sapiens, UniProt Q15109)", "T1 construct": "extracellular domain can be isolated by proteolysis of RAGE to generate soluble RAGE (sRAGE) comprised of the V and C domains", "T1 sequence (Q15109 23-342 limits assumed)": "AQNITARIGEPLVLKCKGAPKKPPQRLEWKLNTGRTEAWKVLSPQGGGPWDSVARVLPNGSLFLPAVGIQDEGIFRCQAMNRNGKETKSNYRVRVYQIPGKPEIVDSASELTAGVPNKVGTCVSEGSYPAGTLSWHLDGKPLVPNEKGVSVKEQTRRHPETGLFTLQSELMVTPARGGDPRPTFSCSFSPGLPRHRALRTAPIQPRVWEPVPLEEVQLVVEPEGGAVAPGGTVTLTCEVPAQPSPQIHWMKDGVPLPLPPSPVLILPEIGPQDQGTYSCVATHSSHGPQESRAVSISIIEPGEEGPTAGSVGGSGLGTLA", "assay": "RAGE binding assay (ELISA), S100b as the RAGE ligand", "conditions": "compounds tested in hydrochloride salt form, concentration at which 50% signal has been inhibited", "method_in_brief": "(§1)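 Ligand (500 ng/well) coated in carbonate buffer pH 9.8 overnight at 4° C and blocked with 1% BSA; test compound (10-100 μM in water, 4% DMSO co-solvent) incubated with sRAGE (6 nM FAC) 1 h at 37° C. Bound sRAGE detected by anti-sRAGE/biotin-anti-mouse/AP-streptavidin with pNPP, A405. IC50 = 50% signal inhibition.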"}, "[1]": {"target": "T2, sRAGE binding to β-amyloid (Homo sapiens, UniProt Q15109)", "T2 construct": "extracellular domain can be isolated by proteolysis of RAGE to generate soluble RAGE (sRAGE) comprised of the V and C domains", "T2 sequence (Q15109 23-342 limits assumed)": "as above", "assay": "RAGE binding assay (ELISA), β-amyloid as the RAGE ligand", "conditions": "compounds tested in hydrochloride salt form, concentration at which 50% signal has been inhibited", "method_in_brief": "as §1"}, "[2]": {"system": "RAGE signaling in THP-1 cells", "assay": "Functional assay: TNF-alpha secretion by S100b-stimulated THP-1 cells", "type": "cell-based", "conditions": "Homo sapiens; THP-1 cells stimulated with bovine S100b 100 μg/mL; TNF-alpha measured by ELISA 24 hours after stimulation; read-out: EC50 for TNF expression", "from_the_text": "Previously the literature has cited that THP-1 cells in response to RAGE ligands secrete TNF alpha (Yeh C-H, et al. Diabetes. Vol. 50, June 2001, pp. 1495-1504). The following assay method may be used to identify compounds of Formula (I) or pharmaceutically acceptable salts thereof which are useful as antagonists of RAGE signaling.\nThe myeloid cell line, THP-1 (ATTC # TIB-202), may be cultured in RPMI-1640 media (ATCC, Cat #30-2001) supplemented with fetal bovine serum to a final concentration of 10% by volume and Penicillin-Streptomycin (Gibco, Cat #0.15140-122). Alternatively, media may be formulated using RPMI 1640 (Bio-Whitaker #12-702F) supplemented with 2 mM L-glutamine (Gibco #12381-018) adjusted to contain 1.5 g/L sodium bicarbonate (Gibco #25080-094), 4.5 g/L glucose, 10 mM HEPES (Cellgro #25-060-L1) and 1.0 mM sodium pyruvate (Gibco #11360-070) and supplemented with 0.05 mM 2-mercaptoethanol, […] fetal bovine serum, 10% per ATCC instructions. During culture, the culture cells are maintained at a density between 5×10^4 and 1×10^6 viable cells/mL. […]\nThe amount of TNF-alpha secreted by the THP-1 cells was measured 24 hours after the addition of the stimulant proteins to the cell culture using a commercially available ELISA kit (R&D Systems, Minneapolis, Minn. # DY210). […] The plate is read at 450 nm within 30 minutes. […]"}}, "note": "Where a name gives a salt, the structure may show the parent alone."}
{"compound": "CCCCc1nnc(OC2CCN(C)CC2)cc1-c1ccc(OC2CCCCC2)cc1", "note": "[Example 14, 3-Butyl-4-(4-cyclohexyloxy-phenyl)-6-(1-methyl-piperidin-4-yloxy)-pyridazine dihydrochloride]", "values": [{"measurement": "IC50", "setting": "sRAGE binding to S100b", "value": 810, "unit": "nM"}, {"measurement": "IC50", "setting": "[1]", "value": 820, "unit": "nM"}, {"measurement": "EC50", "setting": "[2]", "value": 1260, "unit": "nM"}]}
